How the values were obtained:
[1] = tested on: Saccaromyces cerevisiae; assay: activity against yeast-like fungi, Saccaromyces cerevisiae; type: cell-based
[2] = tested on: microbial cells; assay: activity against growing and dormant microbial cells and sphaeroplasts; type: cell-based; conditions: both growing and dormant cells
[3] = tested on: Candida albicans; assay: activity against yeast-like fungi, Candida albicans; type: cell-based
[4] = tested on: Salmonella typhimurium; assay: serial dilution test, MIC, Salmonella typhimurium; type: cell-based; conditions: Salmonella enterica, 37°, Gram-negative
Description: (§1) The components display the following Rf values in a thin layer chromatogram on silica gel plates from Messrs. Merck (silica gel 60, F254): in chloroform/methanol (9:1): X=0.58; I=0.81; in benzene/methanol (9:1): X=0.26; I=0.30; in chloroform/acetone (5:5): X=0.40; I=0.53; and in benzene/acetone (5:5): X=0.47; I=0.74. In a serial dilution test the following minimum inhibitory concentrations (MIC) were found for Lysolipin I: […]

[5] = tested on: Candida lipolytica; assay: activity against yeast-like fungi, Candida lipolytica; type: cell-based
[6] = solubility; type: physicochemical
[7] = titration / microtitration (pK); type: physicochemical
Description: (OCH3 : determination according to the method of Zeisel). Molecular weight, determined by vapour pressure osmometry in ethyl acetate; found 536. Microtitration with 0.1 N tetramethylammonium hydroxide in methylcellosolve/water (8:2): found pK^xMCS 9.72, equivalent weight 545. Titration with 0.1 N HCl; no step (N atom therefore not basic).

[8] = tested on: Micro-organisms; assay: MIC of Lysolipin X compared with Lysolipin I, serial dilution test; type: cell-based; conditions: Lysolipin X relative to Lysolipin I
Description: as §1

[9] = stability / conversion of Lysolipin X into Lysolipin I; type: physicochemical
Procedure: Lysolipin X was obtained as a colourless amorphous powder. […] The almost colourless amorphous powder thus obtained, that is to say Lysolipin X, can be crystallized from methanol; on heating the crystals undergo modification at 200° and melt at 260° C.
The pure product so obtained is stable in the absence of light and acid. In a thin layer chromatogram on silica gel in the system chloroform/methanol (39:1), Rf=0.22 (Rf of Lysolipin I=0.39). […] The signals at 0.9 and 1.3 ppm are probably to be ascribed to a fatty impurity. However, most of the signals in the range from 3 to 8 ppm are very similar to those of Lysolipin I and point to the close relationship between the two compounds.
On analogous working up, fractions 76-100 give an almost colourless amorphous powder (393 mg), which is Lysolipin X and cannot be purified by crystallisation. See FIGS. 7 and 8 for the NMR spectrum and the UV spectrum. On thin layer chromatography on silica gel in chloroform/methanol (39:1), Rf=0.22 (compared with 0.39 for Lysolipin I). On the thin layer plate, the spot for Lysolipin X, which is initially very pale and scarcely discernible, becomes deep yellow on standing in the air and, more rapidly, on warming.

Compound	activity against yeast-like fungi [1]	activity against growing and dormant microbial cells and their sphaeroplasts [2]	activity against yeast-like fungi [3]	MIC [4]	activity against yeast-like fungi [5]	solubility in organic solvents ([6]; acetone, dimethylformamide, dimethylsulphoxide, ethyl acetate, hydrocarbons, halogenated hydrocarbons)	solubility in lower alkanols, ether and petroleum ether ([6]; methanol, ethanol, n-propanol, ether, petroleum ether)	solubility in water and aqueous acids and bases ([6]; water and aqueous acids and bases)	titration with HCl ([7]; 0.1 N HCl, N atom therefore not basic)	pKa ([7]; microtitration with 0.1 N tetramethylammonium hydroxide in methylcellosolve/water (8:2), read-out: pK^xMCS)	factor by which the MIC is higher [8]	stability to acid in solvent ([9]; chloroform or methanol with formic, acetic, hydrochloric or sulfuric acid)	stability on heating or irradiation with UV light ([9]; especially in the presence of catalytic amounts of acids)	stability of impure material ([9]; impure)	stability on storage ([9]; impure, stored in the air, unprotected from light, room temperature or higher)	stability of pure product ([9]; in the absence of light and acid)	stability on thin layer plate ([9]; silica gel plate, standing in the air, more rapidly on warming)
COc1c(Cl)ccc2c(=O)c3c(O)c4c5c(c3oc12)OCOC5C(OC)c1cc2c(c(O)c1-4)C(=O)N(C)C(OC)C2O (stereo not drawn) [Lysolipin I]	display an activity	active	display an activity	> 100 µg/mL	display an activity	readily soluble	partially soluble	virtually insoluble	no step	9.72							
COc1c(Cl)ccc2c(=O)c3c(oc12)C1=C2C(OCO1)C(OC)c1cc4c(c(O)c1C2(O)C3O)C(=O)N(C)C(OC)C4O (stereo not drawn) [Lysolipin X]	display an activity	active	display an activity		display an activity						10-50	converted into Lysolipin I	forms Lysolipin I	unstable	gradually converted into Lysolipin I	stable	converted into Lysolipin I
